From article PMC5996347, “2-Mercapto-Quinazolinones as Inhibitors of Type II NADH Dehydrogenase and Mycobacterium tuberculosis: Structure–Activity Relationships, Mechanism of Action and Absorption, Distribution, Metabolism, and Excretion Characterization” (ACS Infectious Diseases, 2018) come the findings set out here.

Common to all, as to format: cell-based, Mycobacterium tuberculosis
The subject of experiment [1] is anaerobic nonreplicating MTb cells. Briefly: Anaerobic cidal activity on nonreplicating cells.
In the next experiment the test system is nuoG deletion mutant. The following applies: results not shown.
A further experiment has as its system ΔndhA mutant.

The structures appear in SMILES notation. “Also recorded” adds a separate entry of the source.

In the case of `O=C(CSc1nc2ccccc2c(=O)[nH]1)NC1CCCCC1` [Compound 1, N-Cyclohexyl-2-((4-oxo-3,4-dihydroquinazolin-2-yl)thio)acetamide], the “Anaerobic cidal activity / viability of anaerobic nonreplicating cells” value in experiment [1] was “Lack of anaerobic cidal activity; also recorded: did not affect viability”. Moreover, the “MIC to nuoG deletion mutant compared with WT” value with nuoG deletion mutant is “indistinguishable from WT cells”. In the experiment with ΔndhA mutant, the “Kill of ΔndhA mutant” value is given as ~2 log.
